From US12251373B2, “Compounds and methods of treating retinal degeneration” (CASE WESTERN RESERVE UNIVERSITY, priority 2017, dated 2025) come the findings set out here.

Where two headings read alike, the source gives them in different places.

One test deals with mouse P23H opsin mutant (Mus musculus, UniProt P15409, P23H). The experiment in a line: β-Gal fragment complementation assay: rescue of P23H opsin transport from ER to plasma membrane, U2OS(PLC-EA/P23H-PK) cells. Type of test: cell-based. To be noted: for Emax: U2OS; for dependence of activity on light exposure of cells: cells exposed to light vs dark. The text has this: U2OS(PLC-EA/P23H-PK) cells. A U2OS stable cell line was generated by DiscoveRx, Inc. (Fremont, CA, USA) for the β-Gal fragment complementation assay used in the small molecule HTS for rescue of P23H opsin transport. U2OS cells that continually express P23H-PK and PLC-EA fusion proteins were generated. Briefly, this small subunit of […] (PK fragment) was fused to the C-terminal of the mouse P23H opsin mutant, while the large EA fragment, a subunit of […], was fused with PLC, a plasma membrane anchored peptide. Both constructs were subcloned by DicoveRx, Inc. and transferred into U2OS cells by viral infections. Positive clones were selected under treatment with hygromycin and geneticin.
Briefly, U2OS(PLC-EA/P23H-PK) cells were suspended in assay medium at 3×10^5 cells mL^−1. The cell suspension was dispensed into 384-well plates (Greiner Bio-one, Monroe, NC, USA) at 20 μL per well, with a Multidrop dispenser (Thermo Scientific, Waltham, MA, USA). Plates with cells then were centrifuged at 200 g for 15 s before incubation at 37° C. with 5% CO2. Plates were removed 24 h later for treatment with tested compounds. A total of 248 plates containing 79,080 compounds from three small molecule libraries were paired with an equal number of assay plates with cultured cells. Due to a limited capacity, these plates were assayed in seven batches. An average of 56.3 nL of 10 mM compound in DMSO was dispensed into each well from column 3 to 22 of paired assay plates using a 50 nL 384-pintool system, such that the final concentration of each compound was 22.52 μM on average. […] Each assay plate was shaken for 5 s before further incubation at 37° C. with 5% CO2. […] Assay plates were incubated in the dark for 60-90 min, and luminescence was read from each assay plate with an Envision microplate reader (PerkinElmer) during a 0.1 s per well integration time. The mean and s.d. of readouts in column 2 of each plate were calculated as Mean0% and SD0%, whereas the average and s.d. of readouts in column 23 were calculated as Mean100% and SD100%. Equation 1: Activity scores (%)=(RLUcp−Mean0%)/(Mean100%−Mean0%)×100%, where RLUcp is the relative luminescence unit derived for cells treated with a compound. Equation 2: Z′-factor=1-3×(SD0%+SD100%)/(Mean100%−Mean0%); Equation 3: signal-to-background (S/B) ratio=Mean100%/Mean0%. Activities of all tested compounds were registered with their compound ID by GeneData Screener (Genedata, Basel, Switzerland) and Pipeline Pilot software (Accelrys, San Diego, CA, USA). Hits, cherry-picked from a separate stock dose-dependent activity test, were selected with an activity score cutoff at 20%. Activity of each hit was tested again with the β-Gal fragment complementation assay in a 10-dose series with each dose tested in triplicate. The 10 doses tested were 80, 40, 20, 10, 5, 2.5, 1.25, 0.625, 0.313, and 0.156 μM. Dose-dependent curves of each hit compound were fitted with GeneData and Origin software.
Detailed synthetic steps are described in FIG. 18. […] YC-002-YC-021 were purchased from commercial vendors including Enamine LLC (Monmouth Jct., NJ, USA), Matrix Scientific (Columbia, SC, USA) and Tokyo Chemical Industry Co., Ltd. (Portland, OR, USA). […] Activities of YC compounds were tested with the β-Gal fragment complementation assay, as described in a prior section. All YC compounds were tested at 10 doses, each in triplicate: 80, 40, 20, 10, 5, 2.5, 1.25, 0.625, 0.313, and 0.156 μM.

For a further test, the target named is T1, bovine opsin (Bos taurus, UniProt P02699).
T1 construct: ROS membranes were isolated from bovine retinas under dim red light; from tissue; host or cells: bovine retina rod outer segment (ROS) membranes, bleached with hydroxylamine
T1 sequence (P02699 whole entry): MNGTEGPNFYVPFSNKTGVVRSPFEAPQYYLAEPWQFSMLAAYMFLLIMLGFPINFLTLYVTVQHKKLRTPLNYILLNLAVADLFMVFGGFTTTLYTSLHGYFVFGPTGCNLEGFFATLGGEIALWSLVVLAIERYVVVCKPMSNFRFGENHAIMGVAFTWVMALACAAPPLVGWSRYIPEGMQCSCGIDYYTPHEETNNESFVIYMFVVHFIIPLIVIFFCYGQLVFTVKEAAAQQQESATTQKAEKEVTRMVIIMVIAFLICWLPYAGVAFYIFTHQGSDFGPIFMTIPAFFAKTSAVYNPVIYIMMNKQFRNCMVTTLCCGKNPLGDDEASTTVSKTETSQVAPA
The experiment in a line: Ligand-opsin binding by Trp fluorescence quenching in ROS disc membranes. To be noted: for EC50: opsin in disc membranes, read-out: EC50 of Trp fluorescence quenching at 330 nm. On the procedure:
ROS membranes were isolated from bovine retinas under dim red light. To remove membrane associated proteins, ROS membranes were washed with a hypotonic buffer composed of 5 mM bis-tris propane (BTP) and 1 mM EDTA, pH 7.5, followed by gentle homogenization with subsequent centrifugation at 25,000 g for 30 min. This procedure was repeated four times. The final membrane pellet was suspended in 10 mM sodium phosphate buffer, pH 7.0, and 50 mM hydroxylamine to a 3 mg mL^−1 concentration of rhodopsin, placed on ice and illuminated with a 150 Watt bulb for 30 min. Membranes were pelleted by centrifugation at 16,000 g for 5 min and then washed four times with 10 mM sodium phosphate buffer, pH 7.0, and 2% bovine serum albumin followed by 4 washes with 10 mM sodium phosphate buffer, pH 7.0, and 2 washes with 20 mM BTP, pH 7.5, and 100 mM NaCl. The concentration of opsin was measured with a UV-visible spectrophotometer and quantified using the absorption coefficient ε280 nm=81,200 M^−1 cm^−1.
Emission spectra were recorded with a Perkin Elmer L55 Luminescence Spectrophotometer at 20° C. between 300 and 450 nm after excitation at 295 nm, with excitation and emission slit bands set at 5 and 10 nm, respectively. Changes in Trp fluorescence (ΔF/F0; where ΔF is the difference between the initial Trp fluorescence recorded at 330 nm (F0) and Trp fluorescence recorded at 330 nm at a specified YC-001 concentration) were plotted as a function of the ligand concentration. Binding curves were fitted by the Hill function using Origin software for each compound and the EC50 was calculated. All experimental data were corrected for background and self-absorption of excitation and emission light (inner filter effect).

The mark [1] stands for this setting: Table 1, scores relative to 9-cis-retinal, read-out: β-Gal fragment complementation assay Activity score (%) EC50.
The mark [2] stands for this setting: Table 1, experimental maximum, read-out: β-Gal fragment complementation assay Activity score (%) Max (Exp).
Setting [3] is: Table 1, fitted maximum, read-out: β-Gal fragment complementation assay Activity score (%) Max (fit).

As for `CC1=C(/C=C/C(C)=C\C=C\C(C)=C\C=O)C(C)(C)CCC1` [9-cis-retinal, reference compound], the EC50 on mouse P23H opsin mutant (setting [1]) was found to be 2.7 µM; on bovine opsin, 1.2 ± 0.1 µM. Besides, the Emax on mouse P23H opsin mutant (setting [2]) is 123%; on mouse P23H opsin mutant (setting [3]), 159%. Also, on mouse P23H opsin mutant, the “dependence of activity on light exposure of cells” value is given as “required that cells be incubated in the dark”.
`O=C(CCCCCN1C(=O)c2cccc3cccc(c23)C1=O)NO` [Scriptaid, reference compound]: the “activity in rescuing P23H opsin transport (in words)” value on mouse P23H opsin mutant was “strong activity”. For the same compound, on mouse P23H opsin mutant (setting [1]), the EC50 was 3.09 µM. For the same compound, the Emax is 98% on mouse P23H opsin mutant (setting [2]) and 98.2% on mouse P23H opsin mutant (setting [3]). Further, the “effect on Trp fluorescence” value at bovine opsin (FIG. 3G) is “didn't affect Trp fluorescence”.
Consider `O=C1OCC(c2ccc(Cl)s2)=C1c1cccs1` [YC-001], for which, on mouse P23H opsin mutant (FIG. 1F, 40 μM YC-001), the “time to maximum activity” value is given as at most 15 h. For the same compound, the EC50 at mouse P23H opsin mutant (HTS hit confirmation, FIG. 1E, read-out: potency) is 7.8 µM; on mouse P23H opsin mutant (setting [1]) it was 8.7 µM; on mouse P23H opsin mutant (Table 5, more than one site modified, read-out: Potency), 8.39 µM; at bovine opsin it was 0.98 ± 0.05 µM. In addition, the values for the Emax on mouse P23H opsin mutant (setting [2]), on mouse P23H opsin mutant (setting [3]) and at mouse P23H opsin mutant (read-out: Efficacy (%)) were 310%, 310% and 248%, respectively. In addition, the “effect of co-treatment with scriptaid on P23H opsin transport” value on mouse P23H opsin mutant (YC-001 and scriptaid co-treatment) was “synergistic effect”. Further, at mouse P23H opsin mutant, the “dependence of activity on light exposure of cells” value is reported as “not affected”. Moreover, at mouse P23H opsin mutant (with 5 μM 9-cis-retinal, FIG. 1G), the “effect of co-treatment with 9-cis-retinal” value is “No additive effect”.
